We go through 22 compounds from patent US9434727B2, “Substituted 4-phenylpiperidines, their preparation and use” (THE TRUSTEES OF COLUMBIA UNIVERSITY IN THE CITY OF NEW YORK, priority 2014, dated 2016).

One assay addresses RBP4 (Homo sapiens (Human), UniProt P02753). Nature of the assay: Scintillation proximity (SPA) RBP4 binding assay. Conditions: 10 nM 3H-Retinol, 50 nM biotinylated RBP4. The protocol:
Scintillation Proximity RBP4 Binding Assay
Untagged human RBP4 purified from urine of tubular proteinuria patients was purchased from Fitzgerald Industries International. It was biotinylated using the EZ-Link Sulfo-NHS-LC-Biotinylation kit from Pierce following the manufacturer's recommendations. Binding experiments were performed in 96-well plates (OptiPlate, PerkinElmer) in a final assay volume of 100 μl per well in SPA buffer (IX PBS, pH 7.4, 1 mM EDTA, 0.1% BSA, 0.5% CHAPS). The reaction mix contained 10 nM ^3H-Retinol (48.7 Ci/mmol; PerkinElmer), 0.3 mg/well Streptavidin-PVT beads, 50 nM biotinylated RBP4 and a test compound. Nonspecific binding was determined in the presence of 20 μM of unlabeled retinol. The reaction mix was assembled in the dark under dim red light. The plates were sealed with clear tape (TopSeal-A: 96-well microplate, PerkinElmer), wrapped in the aluminum foil, and allowed to equilibrate 6 hours at room temperature followed by overnight incubation at +4° C. Radiocounts were measured using a TopCount NXT counter (Packard Instrument Company).
(In general: Scintillation proximity formats need no separation of bound from free tracer.)

The next assay has as its target RBP4-TTR interaction (Homo sapiens (Human), UniProt P02753). Kind of assay: TR-FRET (HTRF) assay for retinol-induced RBP4-TTR interaction. Conditions: in the presence of 1 μM retinol; read-out: HTRF assay for antagonists of RBP4-TTR interaction: IC50. The assay is classed as biochemical. The source says: TR-FRET assay for retinol-induced RBP4-TTR interaction Binding of a desired RBP4 antagonist displaces retinol and induces hindrance for RBP4-TTR interaction resulting in the decreased FRET signal (FIG. 7). Bacterially expressed MBP-RBP4 and untagged TTR were used in this assay. […] Following cell lysis, recombinant RBP4 was purified from the soluble fraction using the ACTA FPLC system (GE Healthcare) equipped with the 5-ml the MBP Trap HP column. Human untagged TTR was purchased from Calbiochem. Untagged TTR was labeled directly with Eu^3+ Cryptate-NHS using the HTRF Cryptate Labeling kit from CisBio following the manufacturer's recommendations. HTRF assay was performed in white low volume 384 well plates (Greiner-Bio) in a final assay volume of 16 μl per well. The reaction buffer contained 10 mM Tris-HCl pH 7.5, 1 mM DTT, 0.05% NP-40, 0.05% Prionex, 6% glycerol, and 400 mM KF. […] Titration of test compounds in this assay was conducted in the presence of 1 μM retinol. All reactions were assembled in the dark under dim red light and incubated overnight at +4° C. wrapped in aluminum foil. TR-FRET signal was measured in the SpectraMax M5e Multimode Plate Reader (Molecular Device). […] The TR-FRET signal was expressed as the ratio of fluorescence intensity: Flu665/Flu620×10,000.
Background: Time-resolved FRET reads energy transfer from a long-lived donor to a nearby acceptor.

For `CC(C)C(=O)N1Cc2[nH]nc(C(=O)N3CCC(c4ccc(F)c(F)c4C(F)(F)F)CC3)c2C1` [Compound 85, 1-(3-(4-(3,4-difluoro-2-(trifluoromethyl)phenyl)piperidine-1-carbonyl)pyrrolo[3,4-c]pyrazol 5(1H,4H,6H)-yl)-2-methylpropan-1-one], the IC50 (in general, the concentration that gives 50% inhibition) on RBP4 was determined as 17.9 nM; on RBP4-TTR interaction, 22.4 nM.

With `COCCN1Cc2[nH]nc(C(=O)N3CCC(c4ccc(F)c(F)c4C(F)(F)F)CC3)c2C1` [Compound 109, (4-(3,4-difluoro-2(trifluoromethyl)phenyl)piperidin-1-yl)(5-(2-methoxyethyl)-1,4,5,6-tetrahydropyrrolo[3,4-c]pyrazol-3-yl)methanone], the IC50 on RBP4 was determined as 14.9 nM; on RBP4-TTR interaction it was 41.9 nM.

With `N#Cc1ccc2nnc(C(=O)N3CCC(c4cccc(Cl)c4C(F)(F)F)CC3)n2c1` [Compound 162, 3-(4-(3-Chloro-2-(trifluoromethyl)phenyl)piperidine-1-carbonyl)-[1,2,4]triazolo[4,3-a]pyridine-6-carbonitrile], the results for the IC50 at RBP4 and on RBP4-TTR interaction were 4.82 nM and 10.7 nM, respectively.

Consider `O=C(c1n[nH]c2c1CN(C1COC1)CC2)N1CCC(c2cccc(F)c2C(F)(F)F)CC1` [Compound 74], for which the values for the IC50 at RBP4 and at RBP4-TTR interaction were 11.6 nM and 28.3 nM, respectively.

Regarding `O=C(c1n[nH]c2c1CCN(CCC(F)(F)F)C2)N1CCC(c2ccc(F)c(F)c2C(F)(F)F)CC1` [Compound 119, (4-(3,4-Difluoro-2(trifluoromethyl)phenyl)piperidin-1-yl)(6-(3,3,3-trifluoropropyl)-4,5,6,7-tetrahydro-1H-pyrazolo[3,4-c]pyridin-3-yl)methanone], the values for the IC50 on RBP4 and at RBP4-TTR interaction were 10.7 nM and 39.4 nM, respectively.

In the case of `COC(=O)N1CCc2c(C(=O)N3CCC(c4cccc(F)c4Cl)CC3)n[nH]c2C1` [Compound 147, Methyl 3-(4-(2-chloro-3-fluorophenyl)piperidine-1-carbonyl)-4,5-dihydro-1H-pyrazolo[3,4-c]pyridine-6(7H)-carboxylate], the IC50 on RBP4 was found to be 17.1 nM; on RBP4-TTR interaction it was 25.5 nM.

For `N#CN1Cc2[nH]nc(C(=O)N3CCC(c4ccc(F)c(F)c4C(F)(F)F)CC3)c2C1` [Compound 110, 3-(4-(3,4-difluoro-2-(trifluoromethyl)phenyl)piperidine-1-carbonyl)-4,6-dihydropyrrolo[3,4-c]pyrazole-5(1H)-carbonitrile], the half-maximal inhibitory concentration (IC50) at RBP4 was found to be 15.6 nM; at RBP4-TTR interaction, 15.4 nM.

For `COCCN1CCc2[nH]nc(C(=O)N3CCC(c4cc(F)cc(F)c4C(F)(F)F)CC3)c2C1` [Compound 127, (4-(3,5-Difluoro-2-(trifluoromethyl)phenyl)piperidin-1-yl)(5-(2-methoxyethyl)-4,5,6,7-tetrahydro-1H-pyrazolo[4,3-c]pyridin-3-yl)methanone], the results for the IC50 on RBP4 and at RBP4-TTR interaction were 15.9 nM and 17 nM, respectively.

For the compound `O=C(c1cccnc1)N1Cc2[nH]nc(C(=O)N3CCC(c4ccc(F)c(F)c4C(F)(F)F)CC3)c2C1` [Compound 104, (4-(3,4-difluoro-2-(trifluoromethyl)phenyl)piperidin-1-yl)(5-nicotinoyl-1,4,5,6-tetrahydropyrrolo[3,4-c]pyrazol-3-yl)methanone], the values for the IC50 at RBP4 and on RBP4-TTR interaction were 18.9 nM and 21.8 nM, respectively.

As for `CCN1CCc2[nH]nc(C(=O)N3CCC(c4cccc(F)c4Cl)CC3)c2C1` [Compound 163, (4-(2-Chloro-3-fluorophenyl)piperidin-1-yl)(5-ethyl-4,5,6,7-tetrahydro-1H-pyrazolo[4,3-c]pyridin-3-yl)methanone], the IC50 on RBP4 turned out to be 15.3 nM; at RBP4-TTR interaction, 55.3 nM.

For `CC(=O)N1CCc2c(C(=O)N3CCC(c4cccc(F)c4C(F)(F)F)CC3)n[nH]c2C1` [Compound 63, 1-(3-(4-(3-Fluoro-2-(trifluoromethyl)phenyl)piperidine-1-carbonyl)-4,5-dihydro-1H-pyrazolo[3,4-c]pyridin-6(7H)-yl)ethanone], the IC50 at RBP4 was 4.46 nM; on RBP4-TTR interaction, 16 nM.

As for `COC(=O)N1CCc2c(C(=O)N3CCC(c4ccc(F)c(F)c4C(F)(F)F)CC3)n[nH]c2C1` [Compound 116, Methyl 3-(4-(3,4-difluoro-2-(trifluoromethyl)phenyl)piperidine-1-carbonyl)-1,4,5,7-tetrahydro-6H-pyrazolo[3,4-c]pyridine-6-carboxylate], the figures for the IC50 on RBP4 and on RBP4-TTR interaction were 11.4 nM and 23.7 nM, respectively.

As to `N#Cc1ccc2nnc(C(=O)N3CCC(c4cc(F)cc(F)c4C(F)(F)F)CC3)n2c1` [Compound 132, 3-(4-(3,5-Difluoro-2-(trifluoromethyl)phenyl)piperidine-1-carbonyl)-[1,2,4]triazolo[4,3-a]pyridine-6-carbonitrile], the concentration for half-maximal inhibition (IC50) on RBP4 was found to be 6.75 nM; at RBP4-TTR interaction it was 10.5 nM.

For the compound `CS(=O)(=O)N1CCc2[nH]nc(C(=O)N3CCC(c4cccc(F)c4Cl)CC3)c2C1` [Compound 151], the half-inhibitory concentration (IC50) at RBP4 came to 10.3 nM; at RBP4-TTR interaction it was 67.7 nM.

`O=C(c1n[nH]c2c1CN(C1COC1)CC2)N1CCC(c2ccc(F)c(F)c2C(F)(F)F)CC1` [Compound 89, (4-(3,4-difluoro-2-(trifluoromethyl)phenyl)piperidin-1-yl)(5-(oxetan-3-yl)-4,5,6,7-tetrahydro-1H-pyrazolo[4,3-c]pyridin-3-yl)methanone]: the results for the IC50 on RBP4 and on RBP4-TTR interaction were 8.84 nM and 33 nM, respectively.

For the compound `O=C(c1n[nH]c2c1CN(C1COC1)CC2)N1CCC(c2cccc(F)c2Cl)CC1` [Compound 165, (4-(2-Chloro-3-fluorophenyl)piperidin-1-yl)(5-(oxetan-3-yl)-4,5,6,7-tetrahydro-1H-pyrazolo[4,3-c]pyridin-3-yl)methanone], the values for the IC50 at RBP4 and on RBP4-TTR interaction were 15.6 nM and 64.8 nM, respectively.

Regarding `CC(=O)N1CCc2c(C(=O)N3CCC(c4cc(F)cc(F)c4C(F)(F)F)CC3)n[nH]c2C1` [Compound 131, 1-(3-(4-(3,5-Difluoro-2-(trifluoromethyl)phenyl)piperidine-1-carbonyl)-4,5-dihydro-1H-pyrazolo[3,4-c]pyridin-6(7H)-yl)ethanone], the results for the IC50 on RBP4 and on RBP4-TTR interaction were 6.36 nM and 10.9 nM, respectively.

As to `O=C(c1n[nH]c2c1CN(CCC(F)(F)F)C2)N1CCC(c2ccc(F)c(F)c2C(F)(F)F)CC1` [Compound 108, (4-(3,4-difluoro-2(trifluoromethyl)phenyl)piperidin-1-yl)(5-(3,3,3-trifluoropropyl)-1,4,5,6-tetrahydropyrrolo[3,4-c]pyrazol-3-yl)methanone], the IC50 at RBP4 turned out to be 25.2 nM; at RBP4-TTR interaction, 49.5 nM.

Take `CS(=O)(=O)N1CCc2[nH]nc(C(=O)N3CCC(c4cc(C(F)(F)F)cc(C(F)(F)F)c4)CC3)c2C1` [Compound 154, (4-(3,5-bis(trifluoromethyl)phenyl)piperidin-1-yl)(5-(methylsulfonyl)-4,5,6,7-tetrahydro-1H-pyrazolo[4,3-c]pyridin-3-yl)methanone]: the values for the half-inhibitory concentration (IC50) at RBP4 and on RBP4-TTR interaction were 150 nM and 385 nM, respectively.

For `O=C(c1n[nH]c2c1CCN(CC1CC1)C2)N1CCC(c2ccc(F)c(F)c2C(F)(F)F)CC1` [Compound 118, (6-(Cyclopropylmethyl)-4,5,6,7-tetrahydro-1Hpyrazolo[3,4-c]pyridin-3-yl)(4-(3,4-difluoro-2-(trifluoromethyl)phenyl)piperidin-1-yl)methanone], the concentration for half-maximal inhibition (IC50) on RBP4 worked out at 9.39 nM; at RBP4-TTR interaction it was 14.2 nM.

As to `CC(=O)N1CCc2c(C(=O)N3CCC(c4cc(F)ccc4C(F)(F)F)CC3)n[nH]c2C1` [Compound 140, 1-(3-(4-(5-fluoro-2-(trifluoromethyl)phenyl)piperidine-1-carbonyl)-4,5-dihydro-1H-pyrazolo[3,4-c]pyridin-6(7H)-yl)ethanone], the IC50 amounted to 9.28 nM on RBP4 and 21.9 nM at RBP4-TTR interaction.

On to `O=C(c1n[nH]c2c1CN(C(=O)N1CCCC1)C2)N1CCC(c2ccc(F)c(F)c2C(F)(F)F)CC1` [Compound 106, (4-(3,4-difluoro-2-(trifluoromethyl)phenyl)piperidin-1-yl)(5-(pyrrolidine-1-carbonyl)-1,4,5,6-tetrahydropyrrolo[3,4-c]pyrazol-3-yl)methanone], for which the IC50 on RBP4 amounted to 20.4 nM; on RBP4-TTR interaction it was 29.8 nM.
